In patent US11944111B2, “Stabilizing sorbic acid in beverage syrup” (PepsiCo, Inc., priority 2015, dated 2024):
Like-named read-outs stand apart in the source and are kept apart here.

Key:
[1] = UV-vis 263 nm, saturated solution
Excerpt: According to the Lambert-Beer Law, the concentration of sorbic acid is proportional to absorption intensity (Abs(Intesity)=K [Sorbic Acid]).

[2] = cited from earlier work
[3] = aqueous solution, pH between 2.5 and 4, about 20 C

## C/C=C/C=C/C(=O)[O-].[K+] [Potassium Sorbate]
[1]; aged at 40 F. 0 day
  Abs (pH 2.5): 1.644
[1]; aged at 40 F. 7 days
  Abs (pH 2.5): 1.357
  Abs (pH 3.0): 1.24
Aged at 40 F. 0 day
  Stability (crystals): no crystals
Aged at 40 F. 7 days
  Stability (crystals): lot of crystals

## C/C=C/C=C/C(=O)O [sorbic acid]
[2]; 60% brix syrup
  solubility of sorbic acid in high acid syrup: 0.08%
[2]; [3]
  sorbate concentration at which sorbic acid precipitation begins: about 500 ppm
  sorbate concentration at which the tendency to precipitate is clear: 1300 ppm
